Reference: patent publication US7875603B2, “Specific inhibitors for vascular endothelial growth factor receptors” (Nova Southeastern University, priority 2006, dated 2011)

Experiments:
Format in all cases: cell-based
[1] = system: Human umbilical vein endothelial cell; test: In Vitro Angiogenesis Assay (morphogenesis / tube formation on Matrigel); set-up: key to In Vitro Angiogenesis Assay Results (score of extent of cellular networks): Individual cells, well separated (+++++); Cells begin to migrate and align themselves (++++); Cells begin to line but not sprouting (+++); Visible Sprouting (++); Closed polygons begins to form (+); conditions: for In Vitro Angiogenesis Assay Results (score of extent of cellular networks): HUVECs 10^4 cells/well on ECMatrix, inhibitors 1 mM and 10 mM, 8 hours at 37° C., higher score = greater inhibition of angiogenesis
Procedure: In Vitro Angiogenesis Assay
Human umbilical vein endothelial cell was purchased from Cambrex Co. (East Rutherford, N.J.) and maintained in EGM (Endothelial Growth Medium) supplemented with 2% FBS, 0.1% EGF, 0.1% Hydrocortisone, 0.1% GA-1000 and 0.4% BBE.
The morphogenesis assay on Matrigel was performed according to the manufacturer's instructions (Chemicon International). The ECMatrix™ kit consists of laminin, collagen type IV, heparan sulfate, proteoglycans, entactin and nidogen. It also contains various growth factors (TGF-β, FGF) and proteolytic enzymes (plasminogen, tPA, MMPs) that are normally produced in EHS tumors. The incubation condition was optimized for maximal tube-formation as follows: 50 μl of EC Matrix™ was suitably diluted in the ratio 9:1 with 10×diluent buffer and used for coating the 96-well plate. The coated plates were incubated at 37° C. for 1 hr. to allow the Matrix solution to solidify. In the meantime the HUVECs that were cultured for 24 hours in EGM with 2% FBS was trypsinised and re-suspended in the growth media and the cells were counted. After 1 hr. pre-incubation of the plate with Matrix solution, the HUVECs were plated at 10^4 cells/well in the absence or in the presence of different VEGFR inhibitors (1 mM and 10 mM). After 8 hours incubation at 37° C., the cell three-dimensional organization (cellular network structures) was examined under an inverted photomicroscope. Each treatment was performed in triplicate.
Activated endothelial cells form cellular networks (mesh like structures) resembling capillary tubes sprouting into the stromal space. The formation of these cellular networks is a dynamic process, which started migration and alignment of cells followed by the development of capillary tubes like structures, sprouting of new branches and finally the formation of the cellular networks. Although this in vitro angiogenesis kit is designed only as a qualitative assay, we have made an attempt to quantitate the degree of angiogenesis using a scoring method. The scoring was based on the extent of the cellular networks that were observed as follows:
Individual cells, well separated (+++++)
Cells begin to migrate and align themselves (++++)
Cells begin to line but not sprouting (+++)
Closed polygons begins to form (+).
According to our qualitative assessment, the higher the scoring the greater the efficiency of the compound for inhibiting endothelial cell mediated angiogenesis.

MCF-7 = test: Cytotoxicity towards MCF-7 breast carcinoma cell line
GI-101A = test: Cytotoxicity towards GI-101A breast carcinoma cell line

| Structure (SMILES) | In Vitro Angiogenesis Assay Results (score of extent of cellular networks) [1] | cytotoxicity towards MCF-7 (MCF-7) | EC50 ([1]; Homo sapiens, estimated, in vitro angiogenesis assay, HUVEC, read-out: EC50 value for anti-antigenic effect) [nM] | cytotoxicity towards GI-101A (GI-101A) |
| --- | --- | --- | --- | --- |
| CCCCCCCCCCCCCCCCCCOc1ccc(C(=O)CC(=O)Nc2ccc(Sc3cccc(C(=O)O)c3)c(C(=O)O)c2)cc1 [Example 5] | +++ |  |  |  |
| CCC(CNCCO)Nc1nc2c(c(=O)n(C)c(=O)n2C)n1Cc1ccccc1 (stereo not shown) [Example 7] | ++ |  |  |  |
| CCCCCCCOc1ccc(/C=N\NC(=O)c2ccc(Br)cc2)cc1 [Example 4] | +++ |  |  |  |
| CCCCCCCCCCCCCCCCOc1ccc(C(NNS(=O)(=O)c2cccc(C(=O)O)c2)N2CCCCC2)cc1 (stereo not shown) [Example 2] | ++++ |  |  |  |
| CCCCCCCCCCOc1ccc(C(=O)N/N=C/c2ccc(OC)cc2)cc1 [Example 3] | ++++ |  |  |  |
| CCCCCCCCCCCCCCCCCCOc1ccc(C(=O)CC(=O)Nc2ccc(Oc3ccc(C(=O)O)cc3)c(C(=O)O)c2)cc1 [Example 6] | ++ |  |  |  |
| COc1ccc(NCC(O)Cn2cnc3c2c(=O)n(C)c(=O)n3C)cc1 (stereo not shown) [Example 1] | +++++ | produced cytotoxicity | 250 | produced cytotoxicity |
